# Like-named read-outs stand apart in the source and are kept apart here.
# Assays:
# MDA-MB-231 cells [1] = experiment: Uptake in the presence of OCT and MATE inhibitors, MDA-MB-231 cells; type: in vitro ADME, human; settings: for interactions with OCT, PMAT and MATE1 transporters, MDA-MB-231: summary from uptake with inhibitors
# Experimental: The uptake of sulfonamide derivatives of metformin (1–9) in MCF-7 and MDA-MB-231 cells was studied also in the presence of disopyramide, cimetidine (OCT1 and 3 inhibitors), lopinavir (OCT and PMAT inhibitor) and methenamine (MATE and OCT2 inhibitors). The cells were incubated (37 °C, 10 min) with compounds 1–9 at concentrations of 400 and 800 μmol/L and inhibitors (disopyramide, cimetidine, lopinavir or methenamine) in 250 μL of prewarmed HBSS buffer. The protocol of determination of the compound concentration was as described above.
# MCF-7 cells = experiment: Intracellular GSH and GSSG, MCF-7; type: cell-based, human
# Experimental: The quantitative determination of glutathione and glutathione disulfide was performed using the enzymatic recycling method according to the protocol of Rahman. The cells were seeded at a density of 2 × 10^5 per well in a 6-well plate and cultured for 48 h. Then, the cells were treated with tested compounds 1, 4 and 7 at their respective ¼ and ½ IC50 values for MCF-7 and MDA-MB-231 cells. Additionally, controls with pure medium, AAPH (2,2′-Azobis(2-methylpropionamidine) dihydro-chloride, Sigma Aldrich, St. Louis, MO, USA) and ascorbic acid (Polish Chemical Reagents, Poland) were performed. The cells were incubated with compounds for another 24 h, then washed twice with 2 mL of cold, Ca^2+-/Mg^2+-free PBS (Biomed Lublin, Lublin, Poland). The cells were harvested using 1-mL accutase (Sigma Aldrich, St. Louis, MO, USA), and the wells were washed with 1 mL of cold growth medium. The cells were transferred to prechilled 2.0-mL Eppendorf tubes and centrifuged at 1000× g for 5 min at 4 °C. The supernatant was discarded, the pellets were resuspended in 1 mL of cold PBS, the number of cells was determined in each sample and the cellular suspension was centrifuged again. PBS was discarded, and the pellets were stored covered with 30-µL PBS at –70 °C. The following day, the cells were suspended in 0.5 mL of ice-cold extraction buffer (0.1% Triton-X (Polish Chemical Reagents, Gliwice, Poland) and 0.6% sulfosalicylic acid (Sigma Aldrich) in a potassium phosphate buffer with EDTA (Sigma Aldrich)) and sonicated in icy water for 3 min with vortexing every 30 s. The cells were frozen once again at −80 °C, defrosted on ice and frozen once again. Following the second freeze–thaw cycle, the cells were centrifuged at 1500× g for 5 min at 4 °C, and then, immediately, the supernatant was transferred to prechilled Eppendorf tubes. The samples were divided into two parts: one was used to measure GSH, and the other one was derivatized by an addition of 4 µL of 2-vinylpyridine (diluted 1:10 with phosphate buffer) (Sigma Aldrich, St. Louis, MO, USA) to determine the GSSG content.
# GSH measurements included an addition of 20 µL of the tested sample, blank or GSH standard, 120 µL of the mixture of an equal volume of DTNB solution (2 mg dissolved in 3 mL of phosphate buffer, Sigma Aldrich) and glutathione reductase (10 U in 3 mL of phosphate buffer, Sigma Aldrich, St. Louis, MO, USA) and 30 s of incubation to allow the conversion of GSSG to GSH. The final step included the addition of 60 µL of β-NADPH (2 mg dissolved in 3 mL of phosphate buffer, Sigma Aldrich). The absorbance was read immediately at 415 nm in a microplate reader (Bio-Rad), and the measurements were taken every 30 s for 2 min (6 readings in total). The amount of GSH was calculated on the basis of the calibration curve prepared using GSH (Sigma Aldrich, St. Louis, MO, USA) at concentrations ranging from 0.040 to 2.6 nmol/mL.
# The quantification of GSSG in the test samples was performed according to the same procedure as GSH. The samples treated with 2-VP were incubated for one hour at room temperature, and then, 20 µL of the tested sample was analyzed using the same reagents which were applied in the GSH measurements. The amount of GSSG was calculated on the basis of the calibration curve, prepared using GSSG (Sigma Aldrich) at concentrations of 0.040–2.6 nmol/mL. The results are presented as mean ± SD, n = 6–8 and expressed as nmol per […].
# MDA-MB-231 cells [2] = experiment: Cellular uptake of metformin sulfonamides in MDA-MB-231 cells (HPLC); type: in vitro ADME, human; settings: for transport efficacy (Vmax/Km) in MCF-7 relative to MDA-MB-231: fold lower in MDA-MB-231 than in MCF-7
# Experimental: The uptake of metformin sulfonamides (1–9) in MCF-7 and MDA-MB-231 cells was studied by incubation of the cells with 10−3000 μmol/L of compounds in 250 μL of prewarmed HBSS buffer at 37 °C for 10 min. Subsequently, the cells were then washed three times with 500 μL of ice-cold HBSS and lysed with 250 μL of 0.1-M NaOH. The samples were collected, centrifuged (5 min, 1400 rpm) and the supernatants were analyzed by the HPLC method. The concentration of each compound in the cells was calculated on the basis of the standard curve prepared by spiking known amounts of every compound on the cell layers in 250 μL of 0.1-M NaOH.
# The concentration of the studied sulfonamides (1–9) was assessed using the HPLC system, consisting of an Agilent 1100 binary pump (Agilent Technologies Inc., Wilmington, DE, USA), an 1100 micro-vacuum degasser, an HP 1050 autosampler and an HP 1050 variable wavelength detector (operated at 235 nm). The chromatographic separations of compounds 1–9 were conducted on an Agilent Zorbax SB-C18 analytical column (4.6 mm × 150 mm, 5 μm) using an isocratic elution of water containing 0.1% formic acid (pH ca. 3.0) and acetonitrile containing 0.1% formic acid with a changing ratio, depending on the compound. The analyses were conducted at room temperature (RT). The detailed procedure of chromatographic analysis was described in our previous paper. The studies were conducted in quadruplicates.
# The protein concentrations in representative wells of each plate were assessed using a Bio-Rad protein assay according to the Bradford method (EnVision, PerkinElmer, Inc., Waltham, MA, USA).
# [3] = compound and inhibitor 400 and 800 µmol/L, 10 min, 37 °C
# [4] = Eadie-Hofstee analysis, transporter I
# [5] = Eadie-Hofstee analysis, transporter I, read-out: Km, transporter I, MDA-MB-231
# [6] = Eadie-Hofstee analysis, transporter II
# [7] = Eadie-Hofstee analysis, transporter II, read-out: Km, transporter II, MDA-MB-231
"uptake in the presence of cimetidine, MDA-MB-231 (MDA-MB-231 cells [1]; [3])","uptake in the presence of disopyramide, MDA-MB-231 (MDA-MB-231 cells [1]; [3])","uptake in the presence of lopinavir, MDA-MB-231 (MDA-MB-231 cells [1]; [3])","uptake in the presence of methenamine, MDA-MB-231 (MDA-MB-231 cells [1]; [3])","interactions with OCT, PMAT and MATE1 transporters, MDA-MB-231 (MDA-MB-231 cells [1])","uptake into MDA-MB-231 cells (MDA-MB-231 cells [2]; 800 μmol/L, 10 min incubation, 37 °C) [nmol/min/mg protein]",uptake in MDA-MB-231 relative to MCF-7 (MDA-MB-231 cells [2]; fold more efficient in MDA-MB-231 than in MCF-7),Structure (SMILES),"GSH (MCF-7 cells; MCF-7, 1/2 × IC50, 24 h) [nmol/1 mln Cells]","GSH:GSSG Ratio (MCF-7 cells; MCF-7, 1/2 × IC50, 24 h)","GSSG (MCF-7 cells; MCF-7, 1/2 × IC50, 24 h) [nmol/1 mln Cells]","GSH (MCF-7 cells; MCF-7, 1/4 × IC50, 24 h) [nmol/1 mln Cells]","GSH:GSSG Ratio (MCF-7 cells; MCF-7, 1/4 × IC50, 24 h)","GSSG (MCF-7 cells; MCF-7, 1/4 × IC50, 24 h) [nmol/1 mln Cells]","Vmax, transporter I, MDA-MB-231 (MDA-MB-231 cells [2]; [4]) [nmol/min/mg]",Km (MDA-MB-231 cells [2]; [5]) [mM],"Vmax, transporter II, MDA-MB-231 (MDA-MB-231 cells [2]; [6]) [nmol/min/mg]",Km (MDA-MB-231 cells [2]; [7]) [mM],Vmax MDA-231 cells (Michaelis Menten curves) (MDA-MB-231 cells [2]; Michaelis-Menten curve) [nmol/min/mg],"Km (MDA-MB-231 cells [2]; Michaelis-Menten curve, read-out: Km MDA-231 cells (Michaelis Menten curves)) [mM]",transport efficacy (Vmax/Km) in MCF-7 relative to MDA-MB-231 (MDA-MB-231 cells [2])
No statistically significant changes,significantly higher uptake,significantly higher uptake,No statistically significant changes,"OCT1, PMAT",,,CN(C)C(=N)N=C(N)NS(=O)(=O)c1ccccc1Cl [Compound 1],167.5 ± 5.1,22.6,7.4 ± 1.8,183.1 ± 8.9,20.1,9.1 ± 3.9,0.0182 ± 0.0026,3.07 ± 0.562,0.0261 ± 0.0040,3.3 ± 0.625,0.047 ± 0.065,8.3 ± 3.27,over 370 fold
significantly decreased,significantly decreased,increased,,"OCT1, OCT3, PMAT",1.3 ± 0.21,approximately 130 fold,CN(C)C(=N)N=C(N)NS(=O)(=O)c1ccccc1Br [Compound 4],148.5 ± 4.8,24.0,6.2 ± 0.7,165.4 ± 9.6,19.2,8.6 ± 0.7,10.27 ± 1.18,5.52 ± 0.748,21.44 ± 4.03,11.6 ± 2.44,,,
,,,,"OCT1, OCT3",,,CN(C)C(=N)N=C(N)NS(=O)(=O)c1ccccc1F [Compound 7],169.0 ± 6.0,15.9,10.6 ± 0.4,166.8 ± 12.8,21.2,7.9 ± 0.9,0.262 ± 0.035,1.53 ± 0.298,0.443 ± 0.026,2.25 ± 0.19,,,10 fold
